e = 2'-O-(2-methoxyethyl) (MOE); d = 2'-deoxy (DNA)
System: HeLa cells
Experiment: Cell cycle assay in HeLa cells
Type: cell-based, human
Details: for % cells aneuploid / % cells in cell cycle phase G1 / % cells in cell cycle phase G2/M / % cells in cell cycle phase S / % cells in cell cycle phase subG1 / % cells in cell cycle phase: G1 / % cells in cell cycle phase: G2/M / % cells in cell cycle phase: S / % cells in cell cycle phase: aneuploid / % cells in cell cycle phase: subG1 / % cells in cell cycle phase aneuploid: HeLa cells; for % cells in cell cycle phase: G1 / % cells in cell cycle phase: G2/M / % cells in cell cycle phase: S / % cells in cell cycle phase: aneuploid / % cells in cell cycle phase: subG1: 48 hours after treatment, relative to untreated control (UTC=100); for phase of the cell cycle in which cells arrest or delay: HeLa
Experimental: In some embodiments, HeLa cells were plated on collagen-coated 24-well plates at 50,000-60,000 cells per well, and allowed to attach to wells overnight. In some embodiments, HeLa cells were synchronized by double thymidine block (cells were washed three times with PBS, then grown in 10% FBS containing 2 mM thymidine; then 19 hours later, cells were washed three times in PBS, 10% FBS for 9 hours; cells were then incubated in 10% FBS, 2 mM thymidine for 15 hours; then washed three times with PBS, 10% FBS and samples were taken every two hours over a 16 hour period). A portion of each time sample was fixed with ethanol and treated with propidium iodide and subjected to FACs analysis for determination of the percentage of cells in each phase of the cell cycle. […] HeLa cells treated with 10 μM cisplatin or 100 ng/ml nocodazole were used as controls for G1-phase and late G2/M-phases, respectively. From the remaining portion of each of these time samples, total RNA was isolated and used to assess the expression of cell cycle marker mRNAs using the real-time RT-PCR methods and/or used to screen microarrays to assess the expression of miRNAs over the course of the cell cycle. It was observed that several miRNAs are expressed in a cell-cycle-dependent manner. Shown in Table 30 are the mRNA levels of the E2F1 transcription factor and topoisomerase 2A (Top2A), which vary over the course of the cell cycle and can be used for comparison to the experimental groups for the confirmation of cell cycle phase. Data are an average of three trials.
In some embodiments, HeLa cells were also treated with oligomeric compounds targeting miRNAs. […] The medium was removed from the plates. Each well was washed in 250 μl of PBS. […] Control cells received LIPOFECTIN™ only. […] After 24 hours (Table 31) or 48 hours (Table 32), cells were prepared for flow cytometry analysis to generate a cell cycle profile. The cell cycle profile was analyzed with the ModFit program (Verity Software House, Inc., Topsham Me.).
The random-mer ISIS 29848 (SEQ ID NO: 737) was used as a negative control, and ISIS 183891 (SEQ ID NO: 847), targeting kinesin-like 1/Eg5, was included as a positive control. Data are expressed as percentage of cells in each phase relative to the untreated control (UTC); values above 100 are considered to indicate a delay or arrest in that phase of the cell cycle. […] In some cases, the same oligomeric compound was tested in repeated experiments.
In accordance with the present invention, certain oligomeric compounds targeting miRNAs were selected for dose response studies. Using the cell cycle assay described above, the cell cycle profiles of HeLa or A549 cells treated with varying concentrations of oligomeric compounds of the present invention were assessed.
HeLa cells were treated with 25-, 50-, 100- or 150 nM of the oligomeric compounds ISIS
Numbers 327902 (SEQ ID NO: 320) and 328383 (SEQ ID NO: 492), both targeted against mir-192, and ISIS 327905 (SEQ ID NO: 323), targeting mir-205, and ISIS 328403 (SEQ ID NO: 512), targeting mir-106. Cells treated with increasing concentrations of oligomeric compounds were compared to untreated cells, to assess the dose-dependency of the observed delay or arrest. The random-mer ISIS 29848 was used as a negative control. Cells were prepared for flow cytometry 48-hours after oligonucleotide treatment, as described, supra.

[1] = 150 nM oligomeric compound, 24 hours, relative to untreated control (UTC = 100)
[2] = 150 nM, 48 hours, relative to untreated control

Row | Substance | % cells aneuploid [1] | % cells in cell cycle phase G1 [1] | % cells in cell cycle phase G2/M [1] | % cells in cell cycle phase S [1] | % cells in cell cycle phase subG1 [1] | % cells in cell cycle phase: G1 (150 nM oligomeric compound) | % cells in cell cycle phase: G2/M (150 nM oligomeric compound) | % cells in cell cycle phase: S (150 nM oligomeric compound) | % cells in cell cycle phase: aneuploid (150 nM oligomeric compound) | % cells in cell cycle phase: subG1 (150 nM oligomeric compound) | % cells in cell cycle phase G1 [2] | % cells in cell cycle phase G2/M [2] | % cells in cell cycle phase S [2] | % cells in cell cycle phase aneuploid [2] | % cells in cell cycle phase subG1 [2] | phase of the cell cycle in which cells arrest or delay (150 nM, 24 hours) | phase of the cell cycle in which cells arrest or delay (150 nM, 48 hours)
1 | 338713 (antisense ACCTCTCAGGAAGACGGACT; all 2'-MOE, all phosphorothioate, methylation of C not given here) [compound 338713] | 187% | 152% | 101% | 72% | 93% | 95% | 109% | 104% | 194% | 426% |  |  |  |  |  |  | 
2 | 338741 (antisense GCTTCACAATTAGACCATCC; all 2'-MOE, all phosphorothioate, methylation of C not given here) [compound 338741] | 166% | 141% | 112% | 73% | 157% | 100% | 99% | 101% | 170% | 185% |  |  |  |  |  |  | 
3 | 338750 (antisense TCCGCGGGGGCGGGGAGGCT; all 2'-MOE, all phosphorothioate, methylation of C not given here) [compound 338750] | 166% | 148% | 97% | 76% | 107% | 99% | 103% | 101% | 190% | 201% |  |  |  |  |  |  | 
4 | 338756 (antisense TGCCCTGCTCAGAGCCCTAG; all 2'-MOE, all phosphorothioate, methylation of C not given here) [compound 338756] | 166% | 147% | 99% | 75% | 137% | 90% | 100% | 121% | 169% | 311% |  |  |  |  |  |  | 
5 | 338797 (antisense CTGGGGAGGGGGTTAGCGTC; all 2'-MOE, all phosphorothioate, methylation of C not given here) [compound 338797] | 193% | 101% | 148% | 79% | 197% | 66% | 168% | 124% | 175% | 813% | 104% | 115% | 89% | 125% | 144% |  | 
6 | 338809 (antisense CTGCTCCAGAGCCCGAGTCG; all 2'-MOE, all phosphorothioate, methylation of C not given here) [compound 338809] | 210% | 159% | 69% | 82% | 106% | 86% | 129% | 110% | 157% | 345% |  |  |  |  |  |  | 
7 | 338826 (antisense CGGATCCTGTTACCTCACCA; all 2'-MOE, all phosphorothioate, methylation of C not given here) [compound 338826] | 138% | 148% | 90% | 79% | 145% | 61% | 182% | 124% | 137% | 696% |  |  |  |  |  |  | 
8 | 338833 (antisense TCGTGCACCTGAGGAGTCTG; all 2'-MOE, all phosphorothioate, methylation of C not given here) [compound 338833] | 185% | 150% | 142% | 56% | 232% | 44% | 258% | 106% | 154% | 1091% | 87% | 136% | 100% | 136% | 255% |  | 
9 | 341785 (antisense GGAGTGAAGACACGGAGCCAGA; all 2'-MOE, all phosphorothioate, methylation of C not given here) [compound 341785] | 158% | 152% | 53% | 92% | 125% | 82% | 116% | 126% | 166% | 1148% |  |  |  |  |  |  | 
10 | 341787 (antisense CACAGGTTAAAGGGTCTCAGGGA; all 2'-MOE, all phosphorothioate, methylation of C not given here) [compound 341787] | 165% | 113% | 144% | 75% | 221% | 55% | 197% | 126% | 153% | 707% | 88% | 145% | 96% | 177% | 324% |  | 
11 | 341788 (antisense AGCCAAGCTCAGACGGATCCGA; all 2'-MOE, all phosphorothioate, methylation of C not given here) [compound 341788] | 114% | 154% | 140% | 54% | 303% | 76% | 163% | 105% | 116% | 748% |  |  |  |  |  |  | 
12 | 345373 (AGCCTATCCTGGATTACTTGAA; sugars from the 5' end e5 d10 e7, all phosphorothioate, methylation of C not given here) [compound 345373] | 68% | 66% | 176% | 94% | 196% | 75% | 145% | 132% | 119% | 116% |  |  |  |  |  |  | 
13 | AGCCTATCCTGGATTACTTGAA (chemistry not fully specified) [ISIS 345373] |  |  |  |  |  |  |  |  |  |  |  |  |  |  |  | G2/M-phase | S-phase
